Assay results as given in patent publication US20180327367A1, “MACROCYCLIC BROAD SPECTRUM ANTIBIOTICS” (priority 2015, published 2018).
In brackets after ≈: the same amount, converted by molar mass. Read-outs that look alike come from different tables or passages of the source.

What was measured:
[1] = tested on: Escherichia coli MC4100 harboring the IMP4213 (E. coli IMP); test: microbe, parasite or virus in culture; assay type: cell-based; details: Escherichia coli, 22 h, read-out: MIC (μg/mL) E. coli IMP, E. coli MC4100 IMP4213, increased outer-membrane permeability; 35° C., 22 hours
How it was run: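 Colonies grown 20 hours at 35° C were suspended in cation-adjusted Mueller Hinton Broth with 0.002% Tween-80. Cells were then added to 2-fold compound dilutions starting at 4 or 0.5 μg/mL, at OD600 0.0005.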

[2] = tested on: Escherichia coli ATCC 25922; test: Minimum inhibitory concentration, broth micro-dilution (CLSI), E. coli; assay type: cell-based; details: Escherichia coli, ATCC25922, 22 h, 35° C., 22 hours
[3] = molecular target: T1, SpsB (Staphylococcus aureus signal peptidase) (Staphylococcus aureus, UniProt P0A070); test: cell-based; assay type: biochemical; details: SpsB IC50, whole-cell S. aureus (USA300 background, overexpressing SpsB) as SpsB source; fluorogenic peptide substrate, kinetic read 30 min
T1 construct: This assay uses a suspension of Staphylococcus aureus cells as a source of SpsB instead of recombinant SpsB protein; endogenous in cells; host or cells: S. aureus, USA300 background, overexpressing SpsB (whole-cell suspension from frozen pellets)
T1 sequence (P0A070 whole entry): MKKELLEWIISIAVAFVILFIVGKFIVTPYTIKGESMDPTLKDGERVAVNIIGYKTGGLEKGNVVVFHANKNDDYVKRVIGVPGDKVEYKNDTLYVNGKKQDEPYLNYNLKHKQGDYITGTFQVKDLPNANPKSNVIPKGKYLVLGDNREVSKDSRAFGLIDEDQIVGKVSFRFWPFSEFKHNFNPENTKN
How it was run: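 Whole S. aureus cells (USA300, overexpressing SpsB) in PBS with MgCl2, CaCl2 and 0.1% Tween-80 served as enzyme source, mixed with 20 μM stock of (Dabcyl)βAla-KPAKAAE(Edans) substrate before use. Fluorescence (ex 340/em 490 nm) read kinetically over 30 min. IC50 from reaction rate versus 11-point inhibitor concentration.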

[4] = tested on: Methicillin Resistant Staphylococcus aureus strain USA 300, NRS384; test: Minimum inhibitory concentration, broth micro-dilution (CLSI), S. aureus; assay type: cell-based; details: Staphylococcus aureus, MRSA / NRS 384 / USA300, 22 h, 35° C., 22 hours
How it was run: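 Ten-point 2-fold series began at 4 μg/mL in protocol 2 and 0.5 μg/mL in protocol 3, in cation-adjusted MHB plus 0.002% Tween-80. Bacteria added to OD600 0.0005 final and incubated at 35° C for 22 hours per CLSI microdilution.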

[5] = read-out: MIC (μg/mL) E. coli, E. coli ATCC 25922
[6] = read-out: MIC (μg/mL) S. aureus, MRSA USA 300 NRS384
[7] = E. coli ATCC 25922, read-out: MIC (μg/mL) E. coli
[8] = MRSA USA 300 NRS384, read-out: MIC (μg/mL) S. aureus

| SMILES | MIC [1] [µg/mL] | MIC [2, 5] [µg/mL] | IC50 [3] [nM] | MIC [4, 6] [µg/mL] | MIC [2, 7] [µg/mL] | MIC [4, 8] [µg/mL] |
| --- | --- | --- | --- | --- | --- | --- |
| C#CCC(C)(C)COc1ccc(C(=O)N[C@@H](CCN)C(=O)N(C)[C@@H]2C(=O)N[C@@H](C)C(=O)N[C@H](C(=O)NCC#N)Cc3ccc(OCCN)c(c3)-c3cc2ccc3OCCN)c(C)c1 [Compound 284] | 0.012 (≈ 0.0139 µM) | 1 (≈ 1.15 µM) | 0.82 | 0.13 (≈ 0.15 µM) |  |  |
| CCCC(C)(C)COc1ccc(C(=O)N[C@@H](CCN)C(=O)N(C)[C@@H]2C(=O)N[C@@H](C)C(=O)N[C@H](C(=O)NCC#N)Cc3ccc(OCCN)c(c3)-c3cc2ccc3OCCN)c(C)c1 [Compound 288] | 0.0078 (≈ 0.00896 µM) |  | 1.1 |  | 0.25 (≈ 0.287 µM) | 0.063 (≈ 0.0724 µM) |
| Cc1cc(OCC2(C)CCCCC2)ccc1C(=O)N[C@@H](CCN)C(=O)N(C)[C@@H]1C(=O)N[C@@H](C)C(=O)N[C@H](C(=O)NCC#N)Cc2ccc(OCCN)c(c2)-c2cc1ccc2OCCN [Compound 289] | 0.0078 (≈ 0.00884 µM) |  | 0.93 |  | 0.25 (≈ 0.283 µM) | 0.031 (≈ 0.0351 µM) |
| CCCCCCCOc1cc(Cl)c(C(=O)N[C@@H](CCN)C(=O)N(C)[C@@H]2C(=O)N[C@@H](C)C(=O)N[C@H](C(=O)NCC#N)Cc3ccc(OCCN)c(c3)-c3cc2ccc3OCCN)c(Cl)c1 [Compound 290] | 0.012 (≈ 0.013 µM) | 0.38 (≈ 0.411 µM) | 1.2 | 0.063 (≈ 0.0681 µM) |  |  |
| CCCCCCCOc1cc(F)c(C(=O)N[C@@H](CCN)C(=O)N(C)[C@@H]2C(=O)N[C@@H](C)C(=O)N[C@H](C(=O)NCC#N)Cc3ccc(OCCN)c(c3)-c3cc2ccc3OCCN)c(Cl)c1 [Compound 291] | 0.0078 (≈ 0.00859 µM) |  | 1.3 |  | 0.19 (≈ 0.209 µM) | 0.063 (≈ 0.0693 µM) |
| CCCCCCCOc1cc(C)c(C(=O)N[C@@H](CCN)C(=O)N(C)[C@@H]2C(=O)N[C@@H](C)C(=O)N[C@H](C(=O)NCC#N)Cc3ccc(OCCN)c(c3)-c3cc2ccc3OCCN)c(C)c1 [Compound 292] | 0.0078 (≈ 0.00882 µM) |  | 1.2 |  | 0.38 (≈ 0.43 µM) | 0.047 (≈ 0.0532 µM) |
| CCCCCCCOc1c(F)cc(C(=O)N[C@@H](CCN)C(=O)N(C)[C@@H]2C(=O)N[C@@H](C)C(=O)N[C@H](C(=O)NCC#N)Cc3ccc(OCCN)c(c3)-c3cc2ccc3OCCN)cc1Cl [Compound 293] | < 0.0039 |  | 1.5 |  | 0.38 (≈ 0.418 µM) | 0.063 (≈ 0.0693 µM) |
| CCCCCCCOc1ccc(C(=O)N[C@@H](CCN)C(=O)N(C)[C@@H]2C(=O)N[C@@H](C)C(=O)N[C@H](C(=O)NCC#N)Cc3ccc(OCCN)c(c3)-c3cc2ccc3OCCN)c2ccccc12 [Compound 295] | < 0.0039 |  | 0.69 |  | 0.13 (≈ 0.143 µM) | 0.031 (≈ 0.0342 µM) |
| CCCCCCOCc1ccc(C(=O)N[C@@H](CCN)C(=O)N(C)[C@@H]2C(=O)N[C@@H](C)C(=O)N[C@H](C(=O)NCC#N)Cc3ccc(OCCN)c(c3)-c3cc2ccc3OCCN)c(C)c1 [Compound 298] | 0.0078 (≈ 0.00896 µM) |  | 0.82 |  | 1 (≈ 1.15 µM) | 0.063 (≈ 0.0724 µM) |
| CCCCCCCOc1cc(C)c(C(=O)N[C@@H](CCN)C(=O)N(C)[C@@H]2C(=O)N[C@@H](C)C(=O)N[C@H](C(=O)NCC#N)Cc3ccc(OCCN)c(c3)-c3cc2ccc3OCCN)c(Cl)c1 [Compound 299] | 0.016 (≈ 0.0177 µM) |  | 1.1 |  | 0.5 (≈ 0.553 µM) | 0.094 (≈ 0.104 µM) |
| CCCCc1ccc(Oc2ccc(C(=O)N[C@@H](CCN)C(=O)N(C)[C@@H]3C(=O)N[C@@H](C)C(=O)N[C@H](C(=O)NCC#N)Cc4ccc(OCCN)c(c4)-c4cc3ccc4OCCN)c(C)c2)cc1 [Compound 303] | 0.012 (≈ 0.0133 µM) |  | 0.93 |  | 0.19 (≈ 0.21 µM) | 0.047 (≈ 0.052 µM) |
| Cc1nc(Oc2ccc(CC(C)C)cc2)ncc1C(=O)N[C@@H](CCN)C(=O)N(C)[C@@H]1C(=O)N[C@@H](C)C(=O)N[C@H](C(=O)NCC#N)Cc2ccc(OCCN)c(c2)-c2cc1ccc2OCCN [Compound 304] | 0.016 (≈ 0.0177 µM) |  | 0.68 |  | 1 (≈ 1.1 µM) | 0.047 (≈ 0.0519 µM) |
| Cc1nc(Oc2ccc(C(C)(C)C)cc2)ncc1C(=O)N[C@@H](CCN)C(=O)N(C)[C@@H]1C(=O)N[C@@H](C)C(=O)N[C@H](C(=O)NCC#N)Cc2ccc(OCCN)c(c2)-c2cc1ccc2OCCN [Compound 305] | 0.016 (≈ 0.0177 µM) |  | 0.73 |  | 1 (≈ 1.1 µM) | 0.063 (≈ 0.0695 µM) |
| CCCCc1ccc(Oc2ncc(C(=O)N[C@@H](CCN)C(=O)N(C)[C@@H]3C(=O)N[C@@H](C)C(=O)N[C@H](C(=O)NCC#N)Cc4ccc(OCCN)c(c4)-c4cc3ccc4OCCN)c(C)n2)cc1 [Compound 306] | 0.0078 (≈ 0.00861 µM) |  | 0.69 |  | 1 (≈ 1.1 µM) | 0.031 (≈ 0.0342 µM) |
